Reference: patent US12551421B2, “N-heptyl-glyceryl ether and synergistically active preservatives” (Evonik Operations GmbH, priority 2020, dated 2026)
Values after ≈ are worked out from the molar mass of the structure shown.

Columns and labels:
A. brasiliensis = test: Preservation challenge test in O/W emulsion base #1, log reduction of viable microorganisms by plate count; assay type: cell-based; conditions: combined with another antimicrobial component in base #1, up to 28 days, FIGS. 1 to 12
S. aureus = test: as above; assay type: cell-based; conditions: combined with another antimicrobial component in base #1, up to 28 days, FIGS. 12 to 19
Procedure: (§1) An O/W emulsion (base #1) was prepared as follows, and n-heptyl glyceryl ether, further antimicrobial compounds and combinations thereof were added to these bases:
(§2) Processing: • 1. Premix phase A and B separately and heat up to 78° C. • 2. Add phase A1 to A under stirring and wait until everything is dissolved. • 3. Add phase B to A under stirring. (Speed 6, for 30 sec.) Homogenize for 90 sec. using an Ultra Turrax. • 4. Cool down using a water bath • 5. Adjust pH.
(§3) Preparatory to the test, the surface of casein soya bean digest agar for bacteria or Saboraud-dextrose agar without the addition of antibiotics for fungi is inoculated with the recently grown stock culture of each of the specified microorganisms. […]
(§4) To count the viable microorganisms in the inoculated products, the agar medium used for the initial cultivation of the respective microorganism is used. […] At zero hour and at 7, 14 and 28 days 1 ml is removed from the sample and the number of viable microorganisms is determined by plate count. […]
To determine the efficacy of the antimicrobial composition, n-heptyl glyceryl ether, another antimicrobial compound and combinations thereof were incorporated into base as shown above. The antimicrobial activity against S. aureus was then evaluated as described above. […]

C. albicans = test: as above; assay type: cell-based; conditions: combined with another antimicrobial component in base #1, up to 28 days, FIGS. 20 to 25
Procedure: as §1, §2, §3, §4
To determine the efficacy of the antimicrobial composition, n-heptyl glyceryl ether, another antimicrobial compound and combinations thereof were incorporated into base #1 as shown above. The antimicrobial activity against C. albicans was then evaluated as described above. […]

[1] = Water solubility / critical micelle concentration of n-heptyl-glyceryl ether; assay type: physicochemical; conditions: water, without component B); read-out: water solubility before micelles are forming
Excerpt: N-heptyl-glyceryl ether has a water solubility of approximately 2 g/l before micelles are forming.

SMILES	synergistic antimicrobial effect (log 10 reduction of combination greater than sum of individual components) (A. brasiliensis)	synergistic antimicrobial effect (log 10 reduction of combination greater than sum of individual components) (S. aureus)	synergistic antimicrobial effect (log 10 reduction of combination greater than sum of individual components) (C. albicans)	solubility [1]
CCCCCCCOCC(O)CO (stereo not shown) [n-heptyl glyceryl ether]	synergistic antimicrobial effects	synergistic antimicrobial effects	synergistic antimicrobial effects	~2000 µg/mL (≈ 10.5 mM)
CCCCC(CC)COCC(O)CO (stereo not shown) [ethylhexyl glycerin, reference compound]	No such synergism	No such synergism	No such synergism	–
